# “Also recorded” adds a separate entry of the source. Where a name gives a salt, the structure may show the parent alone.
# Key:
# [1] = test system: AMPA-type glutamate receptors; assay: Specificity for AMPA-type glutamate receptors
# Text: (§1) Table 2 presents the results of radioligand binding studies that show a lack of interaction between Ampakines and dopaminergic or serotonergic receptors.
# Dopaminergic receptor = assay: Radioligand binding, [^3 H]-Spiperone
# Text: as §1
# (§2) Radioligand Binding Analysis of Potential Interactions between
# (§3) Select Ampakines and Select Neurotransmitter Receptors
# AMPA receptors = assay: Field EPSP amplitude in rat hippocampal slices; format: cell-based; conditions: field CA1, read-out: EC50 values to increase the amplitude of the field EPSP
# Protocol: The physiological effects of Ampakines may be tested in vitro with slices of rat hippocampus according to the following procedure. Excitatory responses (field EPSPs) are measured in hippocampal slices, which are maintained in a recording chamber continuously perfused with artificial cerebrospinal fluid (ACSF). During a 15-30 minute interval, the perfusion medium is switched to one containing various concentrations of the test compounds. Responses collected immediately before and at the end of drug perfusion were superimposed in order to calculate both the percent increase in EPSP amplitude and percent increase in the width of the response at one-half the peak height (half-width). […]
# Current pulses (0.1 msec) through the stimulating electrode activate a population of the Schaffer-commissural (SC) fibers which arise from neurons in the field CA3 and terminate in synapses on the dendrites of CA1 neurons. […] This current results in a voltage in the extracellular space (the field excitatory post-synaptic potential or field "EPSP") which is recorded by a high impedance recording electrode positioned in the middle of the stratum radiatum of CA1. […]
# [2] = test system: methamphetamine-induced locomotor activity; assay: Methamphetamine-induced locomotor activity / crossing (photobeam system); conditions: for Percent Reduction in Methamphetamine Induced Activity: Crossing: Table 1; for reduction of METH LMA: text of Example 3, locomotor activity, haloperidol 0.06 mg/kg, combination p<0.005 vs METH+HAL
# Text: (§4) In the present experiments, male Sprague-Dawley rats (250-300 g; Charles River Laboratories) were given ad libitum food and water and maintained on a 12:12 hr light:dark cycle with lights on at 6:00 AM. […] Locomotor and rearing activities were continuously monitored by computer for all ten test cages. Test cages (with photobeam arrays) were placed in a partially darkened room with room ventilation as background noise. On the test day, naive rats were initially placed in the test cages and baseline behavioral activity in the novel environment was monitored during a 30-minute acclimation period. The rats were then injected (i.p.) with vehicle or drug(s) dissolved in vehicle and immediately returned to the test cage and monitored undisturbed for 90 minutes.
# (§5) Behavioral experiments were repeated at least twice for each condition. Photobeam breaks were summed by the computer into ten-minute periods for analysis. Group means and standard errors are reported in the figures; means and standard deviations were used for statistical analysis by unpaired, two-tailed t test assuming unequal variance.
# Muscarinic receptor = assay: Radioligand binding, [^3 H]-QNB
# Text: as §1, §2, §3
# Adrenergic receptor = assay: Radioligand binding, [^3 H]-Prazosin
# Text: as §1, §2, §3
# [3] = test system: methamphetamine-induced rearing activity; assay: Methamphetamine-induced stereotypic rearing activity (photobeam system); conditions: for total cumulative rearing activity during the 90 minute period after drug administration: FIG. 2, METH 2 mg/kg in all, combination p<0.0005 vs METH+clozapine, saline 56±9; for total cumulative rearing activity during the 90 minute period after drug administration / total rearing activity during the 90 minute test period: i.p., mean±standard error; for reduction of methamphetamine-induced rearing activity: FIG. 3 legend; for total rearing activity during the 90 minute test period: FIG. 4, METH in all, combination p<0.0005 vs METH+HAL, saline 53±11; for Percent Reduction in Methamphetamine Induced Activity: Rearing: Table 1; for reduction of METH-induced rearing: risperidone 0.1 mg/kg, combination p<0.01 vs METH+RISP
# Text: as §4, §5
# Serotoninergic receptor = assay: Radioligand binding, [^3 H]-dLSD
# Text: as §1, §2, §3
# D2 dopamine receptor = conditions: typical antipsychotics; cited from earlier work
# serotonin receptors = conditions: atypical antipsychotics; cited from earlier work
# dopamine receptors = conditions: atypical antipsychotics; cited from earlier work
# [4] = peripheral administration in humans; Guenzi and Zanetti; cited from earlier work
# [5] = test system: fast synaptic potentials in hippocampus; conditions: metabolite of aniracetam; cited from earlier work
# psychotic symptoms = conditions: cited from earlier work; for effect on symptoms in patients: Lahti et al.; for effect in volunteers: Krystal et al.
# behavior in animals = conditions: Freed et al.; cited from earlier work
# [6] = clozapine 1 mg/kg experiment, CX516 10 mg/kg
# [7] = fluphenazine 0.2 mg/kg experiment, CX516 10 mg/kg
# [8] = haloperidol 0.06 mg/kg experiment, CX516 30 mg/kg
# [9] = risperidone 0.1 mg/kg experiment, CX516 10 mg/kg
# [10] = clozapine 1.0 mg/kg, CX516 10 mg/kg
# [11] = clozapine experiment, METH 2 mg/kg i.p., clozapine 1.0 mg/kg, CX516 10 mg/kg
# [12] = haloperidol experiment, HAL 0.06 mg/kg, CX516 30 mg/kg
# [13] = text of Example 2, CX516 10 mg/kg
structure (smiles),measurement,setting,value
"O=C(c1ccc2nccnc2c1)N1CCCCC1 [CX516, 1-(Quinoxalin-6-ylcarbonyl)piperidine]",specificity for AMPA-type glutamate receptors,[1],quite specific for AMPA-type glutamate receptors
same,% Inhibition of ligand binding,Dopaminergic receptor; 1E-5 Molar,-2.8%
same,% Inhibition of ligand binding,Dopaminergic receptor; 1E-7 Molar,0.6%
same,% Inhibition of ligand binding,Dopaminergic receptor; 1E-9 Molar,-5.1%
same,EC50,AMPA receptors,180 µM
same,Percent Reduction in Methamphetamine Induced Activity: Crossing,[2]; [6],-32%
same,Percent Reduction in Methamphetamine Induced Activity: Crossing,[2]; [7],47%
same,Percent Reduction in Methamphetamine Induced Activity: Crossing,[2]; [8],10%
same,Percent Reduction in Methamphetamine Induced Activity: Crossing,[2]; [9],0%
same,reduction of METH LMA,[2]; CX516 30 mg/kg,10%
same,% Inhibition of ligand binding,Muscarinic receptor; 1E-5 Molar,5.3%
same,% Inhibition of ligand binding,Muscarinic receptor; 1E-7 Molar,0.4%
same,% Inhibition of ligand binding,Muscarinic receptor; 1E-9 Molar,5.5%
same,% Inhibition of ligand binding,Adrenergic receptor; 1E-5 Molar,-0.2%
same,% Inhibition of ligand binding,Adrenergic receptor; 1E-7 Molar,-3.5%
same,% Inhibition of ligand binding,Adrenergic receptor; 1E-9 Molar,0.0%
same,total cumulative rearing activity during the 90 minute period after drug administration,[3]; [10],495±78
same,reduction of methamphetamine-induced rearing activity,"[3]; CX516 30 mg/kg, HAL 0.06 mg/kg",23%
same,total rearing activity during the 90 minute test period,"[3]; HAL 0.06 mg/kg, CX516 30 mg/kg",863±169
same,Percent Reduction in Methamphetamine Induced Activity: Rearing,[3]; [6],34%
same,Percent Reduction in Methamphetamine Induced Activity: Rearing,[3]; [7],37%
same,Percent Reduction in Methamphetamine Induced Activity: Rearing,[3]; [8],23%
same,Percent Reduction in Methamphetamine Induced Activity: Rearing,[3]; [9],28%
same,effect on methamphetamine-induced rearing,[3]; [11],"synergistically enhanced the antagonistic activity of clozapine; also recorded: synergistically enhances clozapine antagonism of methamphetamine-induced rearing activity; also recorded: small, but statistically insignificant antagonism of methamphetamine-induced rearing"
same,effect on methamphetamine-induced rearing,[3]; [12],"modest, non-significant antagonism; also recorded: synergistically enhances haloperidol antagonism of methamphetamine-induced stereotypic rearing activity; also recorded: Neither CX516 (30 mg/kg) nor HAL (0.06 mg/kg) significantly reduced methamphetamine-induced rearing activity"
same,reduction of METH-induced rearing,[3]; [13],28%
same,antagonism of METH-induced rearing activity,"[3]; text of Example 2, clozapine 1.0 mg/kg alone, CX516 10 mg/kg alone",34%
same,reduction of METH-induced stereotypic rearing activity,"[3]; text of Example 3, haloperidol 0.06 mg/kg, CX516 30 mg/kg, combination p<0.0005 vs haloperidol alone",22%
same,% Inhibition of ligand binding,Serotoninergic receptor; 1E-5 Molar,9.1%
same,% Inhibition of ligand binding,Serotoninergic receptor; 1E-7 Molar,9.9%
same,% Inhibition of ligand binding,Serotoninergic receptor; 1E-9 Molar,5.5%
O=C(c1ccc2nonc2c1)N1CCCCC1 [CX691],specificity for AMPA-type glutamate receptors,[1],quite specific for AMPA-type glutamate receptors
same,% Inhibition of ligand binding,Dopaminergic receptor; 1E-4 Molar,10.7%
same,% Inhibition of ligand binding,Dopaminergic receptor; 1E-7 Molar,6.1%
same,EC50,AMPA receptors,3 µM
same,% Inhibition of ligand binding,Muscarinic receptor; 1E-4 Molar,-3.7%
same,% Inhibition of ligand binding,Muscarinic receptor; 1E-7 Molar,-8.0%
same,% Inhibition of ligand binding,Adrenergic receptor; 1E-4 Molar,7.0%
same,% Inhibition of ligand binding,Adrenergic receptor; 1E-7 Molar,-7.5%
same,% Inhibition of ligand binding,Serotoninergic receptor; 1E-4 Molar,27.0%
same,% Inhibition of ligand binding,Serotoninergic receptor; 1E-7 Molar,1.6%
"OCCN1CCN(CCCN2c3ccccc3Sc3ccc(C(F)(F)F)cc32)CC1 [Fluphenazine, reference compound]",Percent Reduction in Methamphetamine Induced Activity: Crossing,[2]; [7],54%
same,D2 dopamine receptor antagonism,D2 dopamine receptor,potently antagonize the D2 dopamine receptor
same,Percent Reduction in Methamphetamine Induced Activity: Rearing,[3]; [7],57%
"O=C(CCCN1CCC(O)(c2ccc(Cl)cc2)CC1)c1ccc(F)cc1 [Haloperidol, reference compound]",Percent Reduction in Methamphetamine Induced Activity: Crossing,[2]; [8],9%
same,reduction of METH LMA,[2]; CX516 30 mg/kg,9%
same,D2 dopamine receptor antagonism,D2 dopamine receptor,potently antagonize the D2 dopamine receptor
same,reduction of methamphetamine-induced rearing activity,"[3]; CX516 30 mg/kg, HAL 0.06 mg/kg",16%
same,total rearing activity during the 90 minute test period,"[3]; HAL 0.06 mg/kg, CX516 30 mg/kg",934±119
same,Percent Reduction in Methamphetamine Induced Activity: Rearing,[3]; [8],16%
same,effect on methamphetamine-induced rearing,[3]; [12],"modest, non-significant antagonism"
same,effect on methamphetamine-induced rearing,"[3]; haloperidol experiment, HAL 0.06 mg/kg, CX516 30 mg/kg, listed as HAL",Neither CX516 (30 mg/kg) nor HAL (0.06 mg/kg) significantly reduced methamphetamine-induced rearing activity
"CN[C@@H](C)Cc1ccccc1 [METH, S-(+)-methamphetamine HCl, reference compound]",total cumulative rearing activity during the 90 minute period after drug administration,[3]; [10],724±136
same,total rearing activity during the 90 minute test period,"[3]; HAL 0.06 mg/kg, CX516 30 mg/kg",1105±161
same,effect on methamphetamine-induced rearing,[3]; [11],large induction of rearing activity
"Cc1nc2n(c(=O)c1CCN1CCC(c3noc4cc(F)ccc34)CC1)CCCC2 [Risperidone, reference compound]",Percent Reduction in Methamphetamine Induced Activity: Crossing,[2]; [9],43%
same,serotonin receptor antagonism,serotonin receptors,potent antagonists at serotonin receptors
same,dopamine receptor antagonism,dopamine receptors,relatively potent antagonists at dopamine receptors
same,Percent Reduction in Methamphetamine Induced Activity: Rearing,[3]; [9],51%
same,reduction of METH-induced rearing,[3]; [13],51%
"COc1ccc(C(=O)N2CCCC2=O)cc1 [aniracetam, N-anisoyl-2-pyrrolidinone]",fraction of drug converted to anisoyl-GABA,[4],about 80%
COc1ccc(C(=O)NCCCC(=O)O)cc1 [anisoyl-GABA],aniracetam-like effects,[5],only weak aniracetam-like effects
CN(C)CCCN1c2ccccc2Sc2ccc(Cl)cc21 [chlorpromazine],D2 dopamine receptor antagonism,D2 dopamine receptor,potently antagonize the D2 dopamine receptor
CNC1(c2ccccc2Cl)CCCCC1=O (centres unmarked) [ketamine],effect on symptoms in patients,psychotic symptoms,exacerbate symptoms in patients
same,effect in volunteers,psychotic symptoms,produce a range of psychotic symptoms in volunteers
same,effect on behavior in animals,behavior in animals,produce aberrant behavior in animals
Cc1cc2c(s1)Nc1ccccc1N=C2N1CCN(C)CC1 [olanzapine],serotonin receptor antagonism,serotonin receptors,potent antagonists at serotonin receptors
same,dopamine receptor antagonism,dopamine receptors,relatively potent antagonists at dopamine receptors
c1ccc(C2(N3CCCCC3)CCCCC2)cc1 [phencyclidine],effect on symptoms in patients,psychotic symptoms,exacerbate symptoms in patients
same,effect in volunteers,psychotic symptoms,produce a range of psychotic symptoms in volunteers
same,effect on behavior in animals,behavior in animals,produce aberrant behavior in animals

# Source: US6166008A, “Treatment of schizophrenia with ampakines and neuroleptics” (Cortex Pharmaceuticals, Inc., priority 1998, dated 2000)
